The target of series [1] is T1, human CB2 receptor (Homo sapiens, UniProt P34972). Kind of series: cell-based LANCE cAMP assay in CHO cells stably expressing CB2. For orientation: TR-FRET usually uses a lanthanide donor and a delayed reading to cut background.
In series [2] the test system is normal human mononuclear cells (PBMC). The series can be described thus: cytotoxicity assay on human mononuclear cells. The format is cell-based. Particulars: 72 h, PBMC from healthy donors.
Series [3] concerns the target T1, human CB2 receptor. The series can be described thus: [3H]CP-55,940 radioligand competition binding assay, CB2. As to conditions: calculated as Ki(CB1)/Ki(CB2) ratio.

Bounds are passed on as bounds.

T1 sequence (P34972 whole entry): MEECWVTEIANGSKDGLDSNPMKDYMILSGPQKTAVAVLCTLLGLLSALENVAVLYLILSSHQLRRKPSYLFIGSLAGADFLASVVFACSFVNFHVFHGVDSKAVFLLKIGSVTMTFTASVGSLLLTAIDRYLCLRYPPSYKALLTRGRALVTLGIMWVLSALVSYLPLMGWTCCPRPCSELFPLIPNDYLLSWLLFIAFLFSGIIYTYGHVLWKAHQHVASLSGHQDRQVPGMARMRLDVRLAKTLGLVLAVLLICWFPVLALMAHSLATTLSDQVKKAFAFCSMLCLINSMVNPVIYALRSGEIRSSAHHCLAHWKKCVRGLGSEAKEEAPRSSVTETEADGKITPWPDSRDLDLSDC

For the compound `CC(C)c1ccc(C(NC(=O)Cc2ccccc2)NC(=O)Cc2ccccc2)cc1` [Compound 18, N,N′-((4-Isopropylphenyl)methylene)bis(2-phenylacetamide)], the “functional activity at CB2” value in series [1] is recorded as “CB2 inverse agonists”. Regarding `CN(C)c1ccc(C(NC(=O)Cc2ccccc2)NC(=O)Cc2ccccc2)cc1` [Compound 9, N,N′-((4-(Dimethylamino)phenyl)methylene)bis(2-phenylacetamide)], the “functional activity at CB2” value in series [1] is given as “inverse agonists”. For `CCCN(CCC)c1ccc(C(NC(=O)Cc2ccccc2)NC(=O)Cc2ccccc2)cc1` [Compound 27, N,N′-((4-(Dipropylamino)phenyl)methylene)bis(2-phenylaceta-mide)], in series [1], the “functional activity at CB2” value is recorded as “CB2 inverse agonists”. Same read-out and setting: in the case of `CCCCCC(=O)NC(NC(=O)CCCCC)c1ccc(N(CC)CC)cc1` [Compound 59, N,N′-((4-(Diethylamino)phenyl)methylene)dihexanamide] it was “CB2 inverse agonists”; in that of `O=C(Cc1ccccc1)NC(NC(=O)Cc1ccccc1)c1ccc(N2CCCC2)cc1` [Compound 30, N,N′-((4-(Pyrrolidin-1-yl)phenyl)methylene)bis(2-phenylaceta-mide)], “CB2 inverse agonists”. On to `CCN(CC)c1ccc(C(NC(=O)Cc2ccccc2)NC(=O)Cc2ccccc2)cc1` [Compound 26, N,N′-((4-(Diethylamino)phenyl)methylene)bis(2-phenylaceta-mide)], for which the “functional activity at CB2” value in series [1] was “CB2 inverse agonists”. The cytotoxic effects result in series [2] (1 µM) is “did not show any cytotoxic effects”. In addition, the “effects on cell viability” value in series [2] (10 µM) is “only slight effects on cell viability”. For `O=C(Cc1ccc(Cl)cc1)NC(NC(=O)Cc1ccc(Cl)cc1)c1ccc(C(F)(F)F)cc1` [Compound 39, N,N′-((4-(Trifluoromethyl)phenyl)methylene)bis(2-(4-chlorophenyl)acetamide)], in series [3], the “SI: selectivity index for CB2” value is reported as greater than 198.

These data come from publication PMC3967745 (Journal of medicinal chemistry, 2012).
